Experimental data as given in US20220160703A1, “TUMOR-SELECTIVE COMBINATION THERAPY” (The Board of Regents of The University of Texas System, priority 2019, published 2022).

Assays:
TC-1 tumor = assay: TC-1 subcutaneous tumor model; assay type: in vivo
Protocol: (§1) (FIG. 2A) MC38 cells were subcutaneously transplanted into C57BL/6 WT (n=5-6/group) and Rag1 KO mice (n=5/group), respectively. Tumor bearing mice were treated with β-lap (0.3 mg, i.t.) every other day for four times. […] (FIG. 2B) MC38 tumor bearing C57BL/6 mice (n=5/group) were treated with β-lap (0.3 mg, i.t.) every other day for four times. For CD8^+ T cell depletion, 200 μg of anti-CD8 antibodies were intraperitoneally injected four times at three days interval during the treatment. (FIG. 2C) TC-1 tumor bearing C57BL/6 mice (n=4-5/group) were treated with β-lap (0.1 mg, i.t.) for four times with or without anti-CD8 antibodies. […] (FIG. 2E) 2×10^6 A549 cells were subcutaneously injected into C57BL/6 Rag1^−/− mice (n=5/group for vehicle and β-lap; n=7/group for vehicle+OT-1 and β-lap+OT-1). 30 days later, the mice were i.v. adoptively transfected with 2×10^6 lymph node cells from OT-1 transgenic mice. On the following day, tumor-bearing mice were intratumorally treated with β-lap (0.2 mg) every other day for 4 times. (FIG. 2F) A549 cells were subcutaneously injected into NSG-SGM3 (n=5/group) or NSG-SGM3 harboring human CD34^+ hematopoietic stem cells (n=5/group for Hu-NSG vehicle; n=6/group for Hu-NSG β-lap). Tumor bearing mice were treated with β-lap (0.2 mg, i.t.) every other day for four times. Tumor growth was measured twice a week.
(FIG. 15A) C57BL/6J WT or rag−/− mice (n=5/group) were inoculated subcutaneously (s.c.) with 6×10^5 MC38 cells and treated intratumorally (i.t.) with 0.15 mg of IB-DNQ or vehicle on day 10, day 12, day 14 and day 16. (FIG. 15B) C57BL/6J WT or rag−/− mice (n=5/group) were inoculated subcutaneously (s.c.) with 1×10^5 TC-1 cells and treated intratumorally (i.t.) with 0.15 mg of IB-DNQ or vehicle on day 10, day 12, day 14 and day 16. Tumor diameters were measured by calipers twice a week. Tumor volume is presented as mean±SD. *p<0.05, **p<0.01, ***P<0.001.
FIGS. 17A-I (related to FIGS. 1A-J). […] (FIG. 17A) NQO1 expression in different murine cancer cell lines was determined by western blotting assay. […] (FIG. 17C) MC38 cells (NQO1 WT or KO) were treated with β-lap for 3 hr followed by washing and replacing fresh medium. Cell viability was determined by Sulforhodamine B (SRB) Assay 48 hr later. […] (FIG. 17E, FIG. 17F) B16 cells (NQO1 null or stable overexpression) were treated with β-lap with or without dicoumarol (DIC, 50 μM) for 3 hr followed by washing and replacing medium. Cell viability was determined by SRB Assay 48 hr later. […] Catalase (1000 U/ml) was added and cell viability was assessed 48 hr later. (FIG. 17H) C57BL/6 mice (n=5/group) were transplanted with TC-1 cells, and intratumorally treated with β-lap (0.1 or 0.3 mg) every other day for four times. Tumor growth was monitored twice a week. […] Data are shown as mean±SEM. **P<0.01, ***P<0.001, ****P<0.0001 determined by unpaired student t-test (FIG. 17G) or two-way ANOVA (FIG. 17H and FIG. 17I).
6×10^5 MC38 or 8×10^5 MC38 NQO1 KO cells were subcutaneously transplanted into Rag1^−/−, C57BL/6, and NSG mice, respectively (n=5/group). Tumor-bearing mice were treated with IB-DNQ (12 mg/kg, i.t.) or 20% HPβCD (Vehicle) every other day for four times after tumor volumes reached to 50 mm^3.

MC38 tumor = assay: MC38 subcutaneous syngeneic tumor model; assay type: in vivo, mice
Protocol: (FIG. 1A) NQO1 positive tumor cell lines MC38, TC-1 and Ag104Ld and NQO1 negative cell lines Panc02 and B16 grown in 48-well plates were treated with β-lap (0-8 μM) for a 3 hr followed by washing and replacing medium. Cell viability was determined by Sulforhodamine B (SRB) Assay 4 days later. […] (FIG. 1C) MC38 cells with CRISPR-based NQO1 Knockout (MC38 NQO1KO #5) planted in 96-well plates were exposed to β-lap for 3 hr and cell survival was assessed 48 hr later. […] (FIG. 1E) MC38 cells were exposed to a lethal dose of β-lap (4 μM) for indicated times, then stained with 7-AAD and Annexin V followed by flow cytometry analysis. […] (FIG. 1H) MC38 and B16 NQO1 #1 cells were exposed to β-lap for a 3 hr. Catalase (1000 U/ml) was added and cell survival was assessed 48 hr later. (FIG. 1I) C57BL/6 mice (n=5/group) were transplanted with MC38 cells and treated with β-lap (0.03 mg, 0.1 mg or 0.3 mg, intratumorally; or 25 mg/kg, i.v.) every other day for four times. (FIG. 1J) C57BL/6 mice were transplanted with MC38 cells (NQO1 WT or KO, n=5/group) and treated with β-lap (0.3 mg, i.t.) every other day for four times. Tumor growth was monitored twice a week.
as §1
(FIG. 6A) Treatment schema for local β-lap treatment based combinative therapy in FIG. 6B and FIG. 6C. (FIGS. 6B-C) MC38 tumor cells were s.c. inoculated into the flank of C57BL/6 mice (n=5/group). Mice bearing small tumor (about 50 mm^3, B) or advanced tumor (about 150-200 mm^3, FIG. 6C) were locally treated with β-lap (0.3 mg, i.t.) for four times with or without anti-PD-L1 based checkpoint blockage.

## CC1(C)CCC2=C(O1)c1ccccc1C(=O)C2=O [β-lap, β-lapachone]
TC-1 tumor; 3 doses of β-lap (0.3 mg i.t.)
  tumor response in WT mice: tumor regression occurred
  tumor response in rag−/− mice: but not in adaptive immune-deficient rag^−/− mice
TC-1 tumor; β-lap 0.3 mg i.t.
  antitumor efficacy in STING deficient mice: significantly impaired the antitumor efficacy
TC-1 tumor; β-lap 0.1 or 0.3 mg i.t. every other day four times
  tumor growth: significant tumor suppression
TC-1 tumor; β-lap + anti-CD8 antibody versus β-lap alone
  tumor growth inhibition with anti-CD8 antibody: complete failure of tumor growth inhibition
MC38 tumor; 3×10^6 MC38 cells, 30 days after complete rejection
  re-challenge of cured mice: rejected the re-challenged tumors
MC38 tumor; Rag1 KO C57BL/6 mice, 0.3 mg i.t. four times
  therapeutic activity in immune-deficient mice: lost therapeutic activity
MC38 tumor; large established tumors (about 150-200 mm^3), β-lap 15 mg/kg i.t. four times, anti-PD-L1 100 μg i.p. three times
  TGI: 59.36%
MC38 tumor; local (intratumoral) β-lap 1.5 mg/kg mg, every other day 4 doses
  Tumor growth inhibition rate (TGI): 11.8%
MC38 tumor; local (intratumoral) β-lap 5 mg/kg, every other day 4 doses
  Tumor growth inhibition rate (TGI): 69.4%
MC38 tumor; local (intratumoral) β-lap 15 mg/kg mg, every other day 4 doses
  Tumor growth inhibition rate (TGI): 89.3%
MC38 tumor; systemic β-lap 25 mg/kg i.v., every other day four times
  Tumor growth inhibition rate (TGI): 62.5%
MC38 tumor; β-lap 0.3 mg i.t. + anti-CD8 200 μg
  antitumor effect with CD8+ T cell depletion: abolished β-lap's antitumor effect
MC38 tumor; β-lap 0.3 mg i.t. + anti-CSF1R Ab 100 μg i.t.
  response with macrophage depletion: did not affect the response
MC38 tumor; β-lap 0.3 mg i.t. + anti-IFNAR1 150 μg i.t.
  therapeutic effect with type I IFN blockade: significantly diminished the therapeutic effect
MC38 tumor; β-lap 0.3 mg i.t. four times
  therapeutic effect in Batf3−/− mice: no therapeutic effect
  tumor regression in Myd88−/− mice: disappeared
